Results as given in the kinase profiling compilation of Christmann-Franck et al. (2016).

target: NEK1 (human) (UniProt Q96PY6); experiment: KINOMEscan competition binding; conditions: compound 10.0 µM

| Structure (SMILES) | kinase still bound, per cent of control [%] |
| --- | --- |
| COc1cc(N2CCC(N3CCN(C)CC3)CC2)ccc1Nc1ncc(Cl)c(Nc2ccccc2S(=O)(=O)C(C)C)n1 | 40 |
| CCOc1cc(N2CCC(N3CCCCC3)CC2)ccc1Nc1nc(Nc2ccccc2S(=O)(=O)C(C)C)c2cn[nH]c2n1 | 100 |

target: BMPR1B (human) (UniProt O00238); experiment: KINOMEscan competition binding; conditions: compound 10.0 µM

| Structure (SMILES) | kinase still bound, per cent of control [%] |
| --- | --- |
| CCN1CCN(Cc2ccc(NC(=O)c3ccc(C)c(/C=C/c4cnc(Nc5cc(N6CCNCC6)nc(C)n5)cn4)c3)cc2C(F)(F)F)CC1 | 77 |
| COc1cc(N2CCC(N3CCN(C)CC3)CC2)ccc1Nc1ncc(Cl)c(Nc2ccccc2S(=O)(=O)C(C)C)n1 | 1.2 |
| CCOc1cc(N2CCC(N3CCCCC3)CC2)ccc1Nc1nc(Nc2ccccc2S(=O)(=O)C(C)C)c2cn[nH]c2n1 | 49 |

target: CSK (human) (UniProt P41240); experiment: KINOMEscan competition binding; conditions: compound 10.0 µM

| Structure (SMILES) | kinase still bound, per cent of control [%] |
| --- | --- |
| CCN1CCN(Cc2ccc(NC(=O)c3ccc(C)c(/C=C/c4cnc(Nc5cc(N6CCNCC6)nc(C)n5)cn4)c3)cc2C(F)(F)F)CC1 | 0.55 |
| COc1cc(N2CCC(N3CCN(C)CC3)CC2)ccc1Nc1ncc(Cl)c(Nc2ccccc2S(=O)(=O)C(C)C)n1 | 2 |
| CCOc1cc(N2CCC(N3CCCCC3)CC2)ccc1Nc1nc(Nc2ccccc2S(=O)(=O)C(C)C)c2cn[nH]c2n1 | 100 |
| CCN1CCN(Cc2ccc(NC(=O)c3ccc(C)c(Oc4ccnc5[nH]ccc45)c3)cc2C(F)(F)F)CC1 | 0.45 |

target: SRMS (human) (UniProt Q9H3Y6); experiment: KINOMEscan competition binding; conditions: compound 10.0 µM
Sequence (Q9H3Y6 whole entry, looked up): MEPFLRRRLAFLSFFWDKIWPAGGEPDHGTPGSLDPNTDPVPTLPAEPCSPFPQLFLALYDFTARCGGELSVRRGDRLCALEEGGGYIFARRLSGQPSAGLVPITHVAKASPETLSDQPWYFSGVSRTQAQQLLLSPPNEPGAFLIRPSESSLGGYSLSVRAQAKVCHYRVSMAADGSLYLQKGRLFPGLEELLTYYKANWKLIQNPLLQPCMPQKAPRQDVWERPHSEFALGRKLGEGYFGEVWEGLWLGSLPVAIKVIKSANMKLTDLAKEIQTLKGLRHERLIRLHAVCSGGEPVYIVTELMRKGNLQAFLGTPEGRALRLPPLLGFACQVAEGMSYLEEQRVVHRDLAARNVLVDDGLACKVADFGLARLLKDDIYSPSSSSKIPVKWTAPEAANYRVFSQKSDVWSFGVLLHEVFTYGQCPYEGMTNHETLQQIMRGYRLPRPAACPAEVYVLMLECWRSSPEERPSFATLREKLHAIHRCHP

| Structure (SMILES) | kinase still bound, per cent of control [%] |
| --- | --- |
| CCN1CCN(Cc2ccc(NC(=O)c3ccc(C)c(/C=C/c4cnc(Nc5cc(N6CCNCC6)nc(C)n5)cn4)c3)cc2C(F)(F)F)CC1 | 8.2 |
| COc1cc(N2CCC(N3CCN(C)CC3)CC2)ccc1Nc1ncc(Cl)c(Nc2ccccc2S(=O)(=O)C(C)C)n1 | 0 |
| CCOc1cc(N2CCC(N3CCCCC3)CC2)ccc1Nc1nc(Nc2ccccc2S(=O)(=O)C(C)C)c2cn[nH]c2n1 | 27 |
| CCN1CCN(Cc2ccc(NC(=O)c3ccc(C)c(Oc4ccnc5[nH]ccc45)c3)cc2C(F)(F)F)CC1 | 4.6 |

tested on: EGFR (human), P00533 [752-759 del]; experiment: KINOMEscan competition binding; conditions: compound 10.0 µM
Sequence (P00533 whole entry, looked up, stated change not applied): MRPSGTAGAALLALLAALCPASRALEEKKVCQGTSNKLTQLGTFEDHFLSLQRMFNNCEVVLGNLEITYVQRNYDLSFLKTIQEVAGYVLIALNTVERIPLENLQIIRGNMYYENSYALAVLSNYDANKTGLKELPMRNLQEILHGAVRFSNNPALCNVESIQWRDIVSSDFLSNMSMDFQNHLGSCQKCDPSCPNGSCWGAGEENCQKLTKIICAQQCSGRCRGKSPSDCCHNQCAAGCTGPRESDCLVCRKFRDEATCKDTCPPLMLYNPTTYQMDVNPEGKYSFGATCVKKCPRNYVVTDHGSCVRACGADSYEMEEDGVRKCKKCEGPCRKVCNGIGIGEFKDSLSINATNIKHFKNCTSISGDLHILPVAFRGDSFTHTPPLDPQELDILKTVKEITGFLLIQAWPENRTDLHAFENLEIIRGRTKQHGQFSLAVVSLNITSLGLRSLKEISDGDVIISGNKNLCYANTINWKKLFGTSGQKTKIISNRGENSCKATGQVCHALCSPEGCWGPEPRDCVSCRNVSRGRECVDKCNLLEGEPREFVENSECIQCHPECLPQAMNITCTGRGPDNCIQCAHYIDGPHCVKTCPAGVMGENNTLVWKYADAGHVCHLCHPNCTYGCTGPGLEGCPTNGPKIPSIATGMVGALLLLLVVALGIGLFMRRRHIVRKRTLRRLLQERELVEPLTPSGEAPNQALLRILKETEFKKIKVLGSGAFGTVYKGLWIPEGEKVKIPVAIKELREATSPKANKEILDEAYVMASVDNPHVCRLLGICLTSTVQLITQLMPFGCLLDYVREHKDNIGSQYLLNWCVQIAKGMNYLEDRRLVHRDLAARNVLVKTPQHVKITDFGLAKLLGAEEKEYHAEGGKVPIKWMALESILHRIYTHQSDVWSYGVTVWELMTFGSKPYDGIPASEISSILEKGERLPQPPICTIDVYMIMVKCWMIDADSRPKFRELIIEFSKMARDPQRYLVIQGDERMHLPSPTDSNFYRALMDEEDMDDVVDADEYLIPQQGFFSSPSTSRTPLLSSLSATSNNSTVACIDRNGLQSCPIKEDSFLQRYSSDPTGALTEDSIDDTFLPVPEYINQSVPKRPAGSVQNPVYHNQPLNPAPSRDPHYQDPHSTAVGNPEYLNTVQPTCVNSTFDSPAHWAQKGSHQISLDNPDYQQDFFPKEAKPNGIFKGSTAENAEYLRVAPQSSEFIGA

| Structure (SMILES) | kinase still bound, per cent of control [%] |
| --- | --- |
| CCN1CCN(Cc2ccc(NC(=O)c3ccc(C)c(/C=C/c4cnc(Nc5cc(N6CCNCC6)nc(C)n5)cn4)c3)cc2C(F)(F)F)CC1 | 6.2 |
| COc1cc(N2CCC(N3CCN(C)CC3)CC2)ccc1Nc1ncc(Cl)c(Nc2ccccc2S(=O)(=O)C(C)C)n1 | 1.4 |
| CCOc1cc(N2CCC(N3CCCCC3)CC2)ccc1Nc1nc(Nc2ccccc2S(=O)(=O)C(C)C)c2cn[nH]c2n1 | 49 |
| CCN1CCN(Cc2ccc(NC(=O)c3ccc(C)c(Oc4ccnc5[nH]ccc45)c3)cc2C(F)(F)F)CC1 | 4.6 |

target: MAP2K2 (human) (UniProt P36507); experiment: KINOMEscan competition binding; conditions: compound 10.0 µM

| Structure (SMILES) | kinase still bound, per cent of control [%] |
| --- | --- |
| CCN1CCN(Cc2ccc(NC(=O)c3ccc(C)c(/C=C/c4cnc(Nc5cc(N6CCNCC6)nc(C)n5)cn4)c3)cc2C(F)(F)F)CC1 | 11 |
| COc1cc(N2CCC(N3CCN(C)CC3)CC2)ccc1Nc1ncc(Cl)c(Nc2ccccc2S(=O)(=O)C(C)C)n1 | 1.8 |
| CCOc1cc(N2CCC(N3CCCCC3)CC2)ccc1Nc1nc(Nc2ccccc2S(=O)(=O)C(C)C)c2cn[nH]c2n1 | 94 |

target: MST1R (human) (UniProt Q04912); experiment: KINOMEscan competition binding; conditions: compound 10.0 µM
Sequence (Q04912 whole entry, looked up): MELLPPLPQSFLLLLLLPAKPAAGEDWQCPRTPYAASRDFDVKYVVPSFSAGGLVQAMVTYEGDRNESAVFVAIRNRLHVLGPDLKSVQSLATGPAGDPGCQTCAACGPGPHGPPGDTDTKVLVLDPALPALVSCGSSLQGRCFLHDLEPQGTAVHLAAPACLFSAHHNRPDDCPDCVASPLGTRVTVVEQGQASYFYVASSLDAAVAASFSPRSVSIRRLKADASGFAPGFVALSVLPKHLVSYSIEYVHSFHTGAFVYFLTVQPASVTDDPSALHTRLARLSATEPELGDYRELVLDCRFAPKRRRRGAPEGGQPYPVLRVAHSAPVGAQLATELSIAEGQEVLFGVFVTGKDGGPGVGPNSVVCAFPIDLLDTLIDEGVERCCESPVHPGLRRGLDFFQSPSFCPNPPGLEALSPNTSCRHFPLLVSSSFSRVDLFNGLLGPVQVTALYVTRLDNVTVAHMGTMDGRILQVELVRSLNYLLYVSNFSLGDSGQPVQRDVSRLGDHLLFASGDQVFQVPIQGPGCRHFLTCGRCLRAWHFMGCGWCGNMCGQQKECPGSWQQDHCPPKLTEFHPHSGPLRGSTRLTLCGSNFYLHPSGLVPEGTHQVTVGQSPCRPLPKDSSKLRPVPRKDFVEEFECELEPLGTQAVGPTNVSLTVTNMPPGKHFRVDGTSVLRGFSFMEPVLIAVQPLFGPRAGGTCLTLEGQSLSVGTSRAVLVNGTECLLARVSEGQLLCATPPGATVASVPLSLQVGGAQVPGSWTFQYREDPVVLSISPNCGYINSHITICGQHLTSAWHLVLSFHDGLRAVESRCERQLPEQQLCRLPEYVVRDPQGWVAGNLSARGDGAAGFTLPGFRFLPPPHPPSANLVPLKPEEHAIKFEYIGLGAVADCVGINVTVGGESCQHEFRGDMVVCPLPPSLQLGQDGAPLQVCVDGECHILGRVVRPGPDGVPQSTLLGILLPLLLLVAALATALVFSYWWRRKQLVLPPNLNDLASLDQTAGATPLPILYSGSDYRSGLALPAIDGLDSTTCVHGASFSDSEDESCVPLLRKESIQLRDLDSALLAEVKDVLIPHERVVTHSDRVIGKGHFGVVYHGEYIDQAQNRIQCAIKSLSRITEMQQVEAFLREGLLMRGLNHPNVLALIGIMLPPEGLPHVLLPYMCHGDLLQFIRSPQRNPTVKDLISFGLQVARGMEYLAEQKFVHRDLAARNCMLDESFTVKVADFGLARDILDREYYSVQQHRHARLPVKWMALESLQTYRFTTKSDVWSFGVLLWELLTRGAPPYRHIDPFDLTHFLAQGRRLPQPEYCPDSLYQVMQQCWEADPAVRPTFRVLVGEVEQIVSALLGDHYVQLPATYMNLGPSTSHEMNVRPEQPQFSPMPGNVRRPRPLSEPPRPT

| Structure (SMILES) | kinase still bound, per cent of control [%] |
| --- | --- |
| CCN1CCN(Cc2ccc(NC(=O)c3ccc(C)c(/C=C/c4cnc(Nc5cc(N6CCNCC6)nc(C)n5)cn4)c3)cc2C(F)(F)F)CC1 | 85 |
| COc1cc(N2CCC(N3CCN(C)CC3)CC2)ccc1Nc1ncc(Cl)c(Nc2ccccc2S(=O)(=O)C(C)C)n1 | 3 |
| CCOc1cc(N2CCC(N3CCCCC3)CC2)ccc1Nc1nc(Nc2ccccc2S(=O)(=O)C(C)C)c2cn[nH]c2n1 | 100 |

target: DAPK3 (human) (UniProt O43293); experiment: KINOMEscan competition binding; conditions: compound 10.0 µM
Sequence (O43293 whole entry, looked up): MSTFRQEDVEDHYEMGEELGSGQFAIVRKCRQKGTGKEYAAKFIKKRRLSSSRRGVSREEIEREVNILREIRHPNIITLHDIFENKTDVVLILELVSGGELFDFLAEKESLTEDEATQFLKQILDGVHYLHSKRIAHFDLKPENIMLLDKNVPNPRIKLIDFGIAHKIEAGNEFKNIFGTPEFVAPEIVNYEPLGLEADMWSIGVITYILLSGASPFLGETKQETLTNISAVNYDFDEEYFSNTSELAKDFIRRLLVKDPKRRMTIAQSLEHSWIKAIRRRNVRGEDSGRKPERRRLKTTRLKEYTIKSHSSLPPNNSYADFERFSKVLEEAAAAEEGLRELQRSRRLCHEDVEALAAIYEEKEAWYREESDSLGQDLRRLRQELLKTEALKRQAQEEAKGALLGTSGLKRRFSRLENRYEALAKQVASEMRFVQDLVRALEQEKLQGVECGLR

| Structure (SMILES) | kinase still bound, per cent of control [%] |
| --- | --- |
| CCN1CCN(Cc2ccc(NC(=O)c3ccc(C)c(/C=C/c4cnc(Nc5cc(N6CCNCC6)nc(C)n5)cn4)c3)cc2C(F)(F)F)CC1 | 91 |
| COc1cc(N2CCC(N3CCN(C)CC3)CC2)ccc1Nc1ncc(Cl)c(Nc2ccccc2S(=O)(=O)C(C)C)n1 | 4.5 |
| CCOc1cc(N2CCC(N3CCCCC3)CC2)ccc1Nc1nc(Nc2ccccc2S(=O)(=O)C(C)C)c2cn[nH]c2n1 | 83 |

tested on: FLT3 (human), P36888 [D835H]; experiment: KINOMEscan competition binding; conditions: compound 10.0 µM

| Structure (SMILES) | kinase still bound, per cent of control [%] |
| --- | --- |
| CCN1CCN(Cc2ccc(NC(=O)c3ccc(C)c(/C=C/c4cnc(Nc5cc(N6CCNCC6)nc(C)n5)cn4)c3)cc2C(F)(F)F)CC1 | 2.4 |
| CCOc1cc(N2CCC(N3CCCCC3)CC2)ccc1Nc1nc(Nc2ccccc2S(=O)(=O)C(C)C)c2cn[nH]c2n1 | 74 |
| CCN1CCN(Cc2ccc(NC(=O)c3ccc(C)c(Oc4ccnc5[nH]ccc45)c3)cc2C(F)(F)F)CC1 | 1.2 |

target: CSF1R (human) (UniProt P07333); experiment: KINOMEscan competition binding; conditions: compound 10.0 µM
Sequence (P07333 whole entry, looked up): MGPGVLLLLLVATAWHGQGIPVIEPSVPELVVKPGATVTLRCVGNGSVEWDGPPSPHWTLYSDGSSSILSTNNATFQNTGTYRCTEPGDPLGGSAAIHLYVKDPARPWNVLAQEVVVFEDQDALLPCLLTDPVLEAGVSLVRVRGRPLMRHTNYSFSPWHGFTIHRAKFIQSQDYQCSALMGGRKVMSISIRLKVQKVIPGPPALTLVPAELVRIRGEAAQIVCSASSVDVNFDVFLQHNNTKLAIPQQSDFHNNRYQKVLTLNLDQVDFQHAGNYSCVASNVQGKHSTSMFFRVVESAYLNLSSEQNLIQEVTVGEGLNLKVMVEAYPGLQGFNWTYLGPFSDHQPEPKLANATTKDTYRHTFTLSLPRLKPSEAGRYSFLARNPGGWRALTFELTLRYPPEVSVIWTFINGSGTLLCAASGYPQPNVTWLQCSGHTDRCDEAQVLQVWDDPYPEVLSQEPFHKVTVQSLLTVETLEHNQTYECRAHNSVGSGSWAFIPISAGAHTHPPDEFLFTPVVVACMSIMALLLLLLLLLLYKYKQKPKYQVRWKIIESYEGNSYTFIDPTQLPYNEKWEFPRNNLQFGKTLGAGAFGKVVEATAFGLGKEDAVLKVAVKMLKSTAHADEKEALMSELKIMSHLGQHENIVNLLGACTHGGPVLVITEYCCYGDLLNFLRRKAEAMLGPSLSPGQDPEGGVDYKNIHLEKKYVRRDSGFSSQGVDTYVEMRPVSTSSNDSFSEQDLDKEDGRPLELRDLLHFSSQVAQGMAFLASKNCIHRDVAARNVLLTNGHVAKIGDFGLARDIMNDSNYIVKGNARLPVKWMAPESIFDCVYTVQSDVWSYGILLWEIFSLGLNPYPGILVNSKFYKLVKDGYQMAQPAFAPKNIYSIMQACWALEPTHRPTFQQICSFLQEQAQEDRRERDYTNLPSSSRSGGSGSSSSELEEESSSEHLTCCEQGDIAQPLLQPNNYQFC

| Structure (SMILES) | kinase still bound, per cent of control [%] |
| --- | --- |
| CCN1CCN(Cc2ccc(NC(=O)c3ccc(C)c(/C=C/c4cnc(Nc5cc(N6CCNCC6)nc(C)n5)cn4)c3)cc2C(F)(F)F)CC1 | 1.1 |
| COc1cc(N2CCC(N3CCN(C)CC3)CC2)ccc1Nc1ncc(Cl)c(Nc2ccccc2S(=O)(=O)C(C)C)n1 | 0 |
| CCOc1cc(N2CCC(N3CCCCC3)CC2)ccc1Nc1nc(Nc2ccccc2S(=O)(=O)C(C)C)c2cn[nH]c2n1 | 99 |
| CCN1CCN(Cc2ccc(NC(=O)c3ccc(C)c(Oc4ccnc5[nH]ccc45)c3)cc2C(F)(F)F)CC1 | 0 |

target: CHEK1 (human) (UniProt O14757); experiment: KINOMEscan competition binding; conditions: compound 10.0 µM
Sequence (O14757 whole entry, looked up): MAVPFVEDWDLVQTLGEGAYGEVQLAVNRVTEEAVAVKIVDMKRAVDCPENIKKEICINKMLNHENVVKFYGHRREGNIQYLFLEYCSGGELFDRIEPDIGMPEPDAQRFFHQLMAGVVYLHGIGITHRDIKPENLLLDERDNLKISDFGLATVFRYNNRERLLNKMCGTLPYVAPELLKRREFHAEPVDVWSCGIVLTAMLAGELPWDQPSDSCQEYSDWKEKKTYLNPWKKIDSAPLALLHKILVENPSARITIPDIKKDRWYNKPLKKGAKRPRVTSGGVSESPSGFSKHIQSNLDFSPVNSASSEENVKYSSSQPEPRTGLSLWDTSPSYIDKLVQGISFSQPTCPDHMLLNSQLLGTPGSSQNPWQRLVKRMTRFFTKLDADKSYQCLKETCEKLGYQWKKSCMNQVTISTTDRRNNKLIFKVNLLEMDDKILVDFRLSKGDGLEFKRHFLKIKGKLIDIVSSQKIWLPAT

| Structure (SMILES) | kinase still bound, per cent of control [%] |
| --- | --- |
| CCN1CCN(Cc2ccc(NC(=O)c3ccc(C)c(/C=C/c4cnc(Nc5cc(N6CCNCC6)nc(C)n5)cn4)c3)cc2C(F)(F)F)CC1 | 82 |
| COc1cc(N2CCC(N3CCN(C)CC3)CC2)ccc1Nc1ncc(Cl)c(Nc2ccccc2S(=O)(=O)C(C)C)n1 | 0 |
| CCOc1cc(N2CCC(N3CCCCC3)CC2)ccc1Nc1nc(Nc2ccccc2S(=O)(=O)C(C)C)c2cn[nH]c2n1 | 100 |
